Results taken from PubChem BioAssay AID296 (DTP/NCI, 2004).
Where “and” joins values, the source holds several entries; their conditions need not be identical. Equal values may be shown once. Inconclusive results are not listed.

Tested on: MX-1 breast xenograft, nude mice, tumor weight T/C
Assay: NCI In Vivo Anticancer Drug Screen. Data for tumor model Human Mammary Carcinoma MX-1 Xenograft (intrarenal inoculation) in NU/NU Swiss (nude) mice
Conditions: endpoint: mean tumor weight change, higher = larger tumour
How it was run: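 Read-out: treated (T) over vehicle control (C) ratio of survival or tumor size. Dosing in animals carrying the transplanted tumor.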

[1] = dose: 150.0 mg/kg/injection, schedule: Q04DX003 (sc), vehicle: saline with Tween-80
[2] = dose: 300.0 mg/kg/injection, schedule: Q04DX003 (sc), vehicle: saline with Tween-80
[3] = dose: 150.0 mg/kg/injection, schedule: Q04DX003 (ip), vehicle: saline with Tween-80
[4] = dose: 600.0 mg/kg/injection, schedule: Q04DX003 (sc), vehicle: saline with Tween-80
[5] = dose: 1200.0 mg/kg/injection, schedule: Q04DX003 (sc), vehicle: saline with Tween-80

SMILES: CO[C@H](C(=O)[C@@H](O)[C@@H](C)O)[C@@H]1Cc2cc3cc(OC4CC(OC5CC(O)C(O)C(C)O5)C(O)C(C)O4)c(C)c(O)c3c(O)c2C(=O)[C@H]1OC1CC(OC2CC(OC3CC(C)(O)C(O)C(C)O3)C(O)C(C)O2)C(O)C(C)O1 (stereo partly specified)
- T/C (dose: 0.25 mg/kg/injection, schedule: Q01DX010 (sc), vehicle: saline): 86 % of control
- T/C (dose: 0.25 mg/kg/injection, schedule: Q04DX003 (sc), vehicle: saline): 105 % of control
- T/C (dose: 0.5 mg/kg/injection, schedule: Q04DX003 (sc), vehicle: saline): 72 % of control
- T/C (dose: 0.75 mg/kg/injection, schedule: Q04DX003 (sc), vehicle: saline): 66 % of control
- T/C (dose: 1.0 mg/kg/injection, schedule: Q04DX003 (sc), vehicle: saline): 42 % of control
- T/C (dose: 1.5 mg/kg/injection, schedule: Q04DX003 (sc), vehicle: saline): 26 % of control
- T/C (dose: 2.0 mg/kg/injection, schedule: Q01DX010 (sc), vehicle: saline): -98 % of control
- T/C (dose: 2.0 mg/kg/injection, schedule: Q04DX003 (sc), vehicle: saline): -34 % of control

SMILES: CCC1(O)CC2CN(CCc3c([nH]c4ccccc34)C(C(=O)OC)(c3cc4c(cc3OC)N(C)C3C(O)(C(N)=O)C(O)C5(CC)C=CCN6CCC43C65)C2)C1 (stereo unspecified) (tested in a mixture with another compound)
- T/C (dose: 0.75 mg/kg/injection, schedule: Q04DX003 (sc), vehicle: water): 27 % of control
- T/C (dose: 1.5 mg/kg/injection, schedule: Q04DX003 (sc), vehicle: water): 1 % of control
- T/C (dose: 6.0 mg/kg/injection, schedule: Q04DX003 (sc), vehicle: water): -44 % of control

SMILES: COC1=C(C)C(=O)C2=C(C1=O)C1C3CC4=C(C(=O)C(OC)=C(C)C4=O)C(CNC(=O)C(C)=O)N3C(C#N)C(C2)N1C (stereo unspecified)
- T/C (dose: 1.0 mg/kg/injection, schedule: Q04DX003 (sc), vehicle: Klucel (hydroxypropylcellulose) (HPC)): 104 % of control
- T/C (dose: 4.0 mg/kg/injection, schedule: Q04DX003 (sc), vehicle: Klucel (hydroxypropylcellulose) (HPC)): 69 % of control

SMILES: O=C(O)CC(NC(=O)CP(=O)(O)O)C(=O)O.[NH-]C1CCCCC1[NH-].[Pt+2] (stereo unspecified)
- T/C (dose: 12.5 mg/kg/injection, schedule: Q04DX003 (sc), vehicle: dextrose): 175 % of control
- T/C (dose: 25.0 mg/kg/injection, schedule: Q04DX003 (sc), vehicle: dextrose): 43 % of control and 62 % of control
- T/C (dose: 100.0 mg/kg/injection, schedule: Q04DX003 (sc), vehicle: dextrose): 12 % of control

SMILES: COc1ccc(C(=O)/C(Br)=C/C(=O)O)cc1
- T/C (dose: 12.5 mg/kg/injection, schedule: Q01DX010 (sc), vehicle: saline): 110 % of control
- T/C (dose: 25.0 mg/kg/injection, schedule: Q01DX010 (sc), vehicle: saline): 63 % of control
- T/C (dose: 50.0 mg/kg/injection, schedule: Q01DX010 (sc), vehicle: saline): 98 % of control

SMILES: NC(=O)c1ncn(C2OC(CO)C(O)C2O)n1 (stereo unspecified)
- T/C (dose: 225.0 mg/kg/injection, schedule: Q04DX003 (sc), vehicle: saline): 108 % of control
- T/C (dose: 450.0 mg/kg/injection, schedule: Q04DX003 (sc), vehicle: saline): 61 % of control
- T/C (dose: 900.0 mg/kg/injection, schedule: Q04DX003 (sc), vehicle: saline): 45 % of control

SMILES: CCCCCc1cc(O)c2c(c1)OC(C)(C)[C@@H]1CCC(C)=C[C@@H]21
- T/C (dose: 150.0 mg/kg/injection, schedule: Q04DX003 (sc), vehicle: other): 82 % of control
- T/C (dose: 300.0 mg/kg/injection, schedule: Q04DX003 (sc), vehicle: other): 81 % of control
- T/C (dose: 1200.0 mg/kg/injection, schedule: Q04DX003 (sc), vehicle: other): 83 % of control

SMILES: CS(=O)(=O)Nc1ccc(C(=O)CCN2CCCCCC2)cc1
- T/C [1]: 101 % of control
- T/C [2]: 70 % of control

SMILES: CSc1ncnc2c1ncn2C1OC(CO)C(O)C1O (stereo unspecified)
- T/C (dose: 75.0 mg/kg/injection, schedule: Q04DX003 (sc), vehicle: saline + alcohol): 3 % of control and 14 % of control
- T/C (dose: 150.0 mg/kg/injection, schedule: Q04DX003 (sc), vehicle: saline + alcohol): -81 % of control and -100 % of control
- T/C (dose: 300.0 mg/kg/injection, schedule: Q04DX003 (sc), vehicle: saline + alcohol): -90 % of control

SMILES: C[C@H](N)C(=O)N[C@@H]1[C@H]2C(=C(O)C[C@@H](O)[C@@H]2O)C(=O)O[C@]1(C)C(Cl)Cl
- T/C (dose: 1.5 mg/kg/injection, schedule: Q04DX003 (sc), vehicle: Klucel (hydroxypropylcellulose) (HPC)): 153 % of control
- T/C (dose: 6.0 mg/kg/injection, schedule: Q04DX003 (sc), vehicle: Klucel (hydroxypropylcellulose) (HPC)): 92 % of control

SMILES: CCC[P+](c1ccccc1)(c1ccccc1)c1ccccc1
- T/C (dose: 18.75 mg/kg/injection, schedule: Q04DX003 (sc), vehicle: saline with Tween-80): 100 % of control
- T/C (dose: 37.5 mg/kg/injection, schedule: Q04DX003 (sc), vehicle: saline with Tween-80): 73 % of control
- T/C (dose: 75.0 mg/kg/injection, schedule: Q04DX003 (sc), vehicle: saline with Tween-80): 62 % of control
- T/C [1]: 54 % of control

SMILES: [CH3][Sn]([CH3])([Cl])[c]1cc[c]([Sn]([CH3])([CH3])[Cl])cc1
- T/C (dose: 1.25 mg/kg/injection, schedule: Q04DX003 (ip), vehicle: saline): 98 % of control
- T/C (dose: 2.5 mg/kg/injection, schedule: Q04DX003 (ip), vehicle: saline): 101 % of control
- T/C (dose: 5.0 mg/kg/injection, schedule: Q04DX003 (ip), vehicle: saline): 89 % of control

SMILES: NS(=O)(=O)OCCCCCCCOS(N)(=O)=O
- T/C [3]: -97 % of control

SMILES: CCOC(=O)C(C)(C)Oc1ccc(Cl)cc1
- T/C [2]: 95 % of control
- T/C [4]: 90 % of control
- T/C [5]: 71 % of control

SMILES: CN(C)C1C(=O)C(C(=O)NP(=O)(NCCCO)N(CCCl)CCCl)=C(O)C2(O)C(=O)C3=C(O)c4c(O)cccc4C(C)(O)C3CC12 (stereo unspecified)
- T/C [1]: -100 % of control
- T/C [2]: -98 % of control
- T/C [4]: -100 % of control

SMILES: Cc1ccc(C(=O)[O][Hg][CH2]C2COC([CH2][Hg][O]C(=O)c3ccc(C)cc3)CO2)cc1 (stereo unspecified)
- T/C (dose: 300.0 mg/kg/injection, schedule: Q04DX003 (sc), vehicle: Klucel (hydroxypropylcellulose) (HPC)): 109 % of control
- T/C (dose: 600.0 mg/kg/injection, schedule: Q04DX003 (sc), vehicle: Klucel (hydroxypropylcellulose) (HPC)): 106 % of control
- T/C (dose: 1200.0 mg/kg/injection, schedule: Q04DX003 (sc), vehicle: Klucel (hydroxypropylcellulose) (HPC)): 72 % of control
- T/C (dose: 2400.0 mg/kg/injection, schedule: Q04DX003 (sc), vehicle: Klucel (hydroxypropylcellulose) (HPC)): 102 % of control

SMILES: COc1ccc2c(NCCCCCCCCNc3c4ccccc4nc4cc(OC)ccc34)c3ccccc3nc2c1
- T/C (dose: 8.0 mg/kg/injection, schedule: Q04DX003 (sc), vehicle: suspension in saline): 68 % of control
- T/C (dose: 16.0 mg/kg/injection, schedule: Q04DX003 (sc), vehicle: suspension in saline): 78 % of control
- T/C (dose: 32.0 mg/kg/injection, schedule: Q04DX003 (sc), vehicle: suspension in saline): 104 % of control
- T/C (dose: 64.0 mg/kg/injection, schedule: Q04DX003 (sc), vehicle: suspension in saline): 92 % of control

SMILES: COC1=C(OC)C(=O)C(Sc2ccc3ccccc3c2)=CC1=O
- T/C (dose: 100.0 mg/kg/injection, schedule: Q04DX003 (sc), vehicle: saline with Tween-80): 97 % of control
- T/C (dose: 200.0 mg/kg/injection, schedule: Q04DX003 (sc), vehicle: saline with Tween-80): 68 % of control
- T/C (dose: 400.0 mg/kg/injection, schedule: Q04DX003 (sc), vehicle: saline with Tween-80): 88 % of control
- T/C (dose: 800.0 mg/kg/injection, schedule: Q04DX003 (sc), vehicle: saline with Tween-80): 61 % of control

SMILES: O=C(NC1CCCCC1)OCc1c(COC(=O)NC2CCCCC2)c(-c2ccc(Cl)c(Cl)c2)n2c1CCC2
- T/C [2]: 114 % of control
- T/C [4]: 114 % of control
- T/C [5]: 107 % of control
- T/C (dose: 2400.0 mg/kg/injection, schedule: Q04DX003 (sc), vehicle: saline with Tween-80): 109 % of control

SMILES: CCOC(=O)Nc1cc2c(c(N)n1)N=C(CN(C)c1ccccc1)CN2
- T/C (dose: 25.0 mg/kg/injection, schedule: Q01DX010 (sc), vehicle: Klucel (hydroxypropylcellulose) (HPC)): 82 % of control
- T/C (dose: 50.0 mg/kg/injection, schedule: Q01DX010 (sc), vehicle: Klucel (hydroxypropylcellulose) (HPC)): 70 % of control

SMILES: O=NN(CCCl)C(=O)NC1CCC(=O)NC1=O (stereo unspecified)
- T/C (dose: 1.56 mg/kg/injection, schedule: Q01DX010 (sc), vehicle: saline with Tween-80): 100 % of control
- T/C (dose: 3.13 mg/kg/injection, schedule: Q01DX010 (sc), vehicle: saline with Tween-80): 69 % of control and 72 % of control
- T/C (dose: 6.25 mg/kg/injection, schedule: Q01DX010 (sc), vehicle: saline with Tween-80): 2 % of control and 15 % of control and 25 % of control
- T/C (dose: 12.5 mg/kg/injection, schedule: Q01DX010 (sc), vehicle: saline with Tween-80): -87 % of control and -84 % of control

SMILES: COc1ccc2c(c1[N+](=O)[O-])CC[C@@H]1[C@@H]2CC[C@]2(C)C(=O)CC[C@@H]12
- T/C [3]: 90 % of control
- T/C (dose: 300.0 mg/kg/injection, schedule: Q04DX003 (ip), vehicle: saline with Tween-80): 111 % of control
- T/C (dose: 1200.0 mg/kg/injection, schedule: Q04DX003 (ip), vehicle: saline with Tween-80): 102 % of control
